The assay addresses T1, hFXR (Homo sapiens, UniProt Q96RI1).
T1 construct: expressed in transfected cells; host or cells: CV-1 cells
T1 sequence (Q96RI1 1-486): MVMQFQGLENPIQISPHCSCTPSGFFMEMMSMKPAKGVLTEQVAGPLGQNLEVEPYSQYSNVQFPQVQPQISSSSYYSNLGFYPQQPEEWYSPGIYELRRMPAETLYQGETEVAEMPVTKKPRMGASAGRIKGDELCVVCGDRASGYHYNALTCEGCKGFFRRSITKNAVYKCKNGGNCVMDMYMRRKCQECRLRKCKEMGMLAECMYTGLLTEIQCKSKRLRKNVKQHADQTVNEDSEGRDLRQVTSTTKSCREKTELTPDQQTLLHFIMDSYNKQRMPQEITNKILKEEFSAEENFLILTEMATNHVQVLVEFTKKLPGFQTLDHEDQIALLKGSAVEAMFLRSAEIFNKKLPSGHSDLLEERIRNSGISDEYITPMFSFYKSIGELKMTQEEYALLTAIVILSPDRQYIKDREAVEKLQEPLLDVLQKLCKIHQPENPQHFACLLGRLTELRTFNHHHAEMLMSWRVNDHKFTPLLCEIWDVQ
T1 sequence (P19793 1-462 partner): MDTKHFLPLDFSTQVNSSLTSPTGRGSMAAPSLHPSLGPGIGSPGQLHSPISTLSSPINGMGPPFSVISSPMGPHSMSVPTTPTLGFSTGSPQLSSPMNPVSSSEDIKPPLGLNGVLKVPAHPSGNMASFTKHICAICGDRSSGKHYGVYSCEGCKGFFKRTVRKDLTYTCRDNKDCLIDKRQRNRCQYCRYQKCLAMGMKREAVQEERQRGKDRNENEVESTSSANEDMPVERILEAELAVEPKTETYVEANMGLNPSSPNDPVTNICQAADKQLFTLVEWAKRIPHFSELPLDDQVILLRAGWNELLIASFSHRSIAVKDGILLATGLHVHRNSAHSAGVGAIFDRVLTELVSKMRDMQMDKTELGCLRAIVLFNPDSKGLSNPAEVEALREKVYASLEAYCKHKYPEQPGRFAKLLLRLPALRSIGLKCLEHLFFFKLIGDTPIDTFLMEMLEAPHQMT
The assay is described as follows: In Vitro FXR Assay (TK). Type of assay: cell-based. The note with it: CV-1 cells transfected with hFXR, hRXR, TK-ECRE-luc and pCMX-YFP; incubated with compound for 18 hrs; luminescence. Here is the method:
Example B-1: In Vitro FXR Assay (TK)
CV-1 cells were seeded at a density of 2,000,000 cells in a T175 flask with DMEM+10% charcoal double-stripped FBS and incubated at 37° C. in 5% CO2 for 18 h (O/N).
After 18 h of incubation, the medium in the T175 flask was changed with fresh DMEM+10% charcoal super-stripped serum. In a polypropylene tube, 2500 μL OptiMEM (Life Technologies, Cat #31985-062) was combined with expression plasmids for hFXR, hRXR, TK-ECRE-luc and pCMX-YFP. The tube was then briefly vortexed and incubated at room temperature for 5 minutes. Transfection reagent (X-tremeGENE HP from Roche, Cat #06 366 236 001) was added to the OptiMEM/plasmid mixture vortexed and incubated at room temperature for 20 minutes. Following incubation, the transfection reagent/DNA mixture complex was added to cells in the T175 flask and the cells were incubated at 37° C. in 5% CO2 for 18 h (O/N).
Compounds were serially diluted in DMSO and added to transfected CV-1 cells. The cells were then incubated for 18 hrs. The next day cells were lysed and examined for luminescence.

Structures are written as SMILES. pEC50: −log10 of the molar value.

By pEC50 is commonly meant −log10 of the EC50, conventionally taken in molar units.

On to `COc1ccc(C23CCC(CN(C(=O)[C@@H]4CCC[C@H](C(=O)O)C4)c4cc(-c5cnn(C(C)C)c5)ccn4)(CC2)CC3)cc1C` (relative stereo) [Compound 3.05, cis-3-((4-(1-Isopropyl-1H-pyrazol-4-yl)pyridin-2-yl)((4-(4-methoxy-3-methylphenyl)bicyclo[2.2.2]octan-1-yl)methyl)carbamoyl)cyclohexanecarboxylic acid], for which the pEC50 was 5.00 to 6.00. For the compound `COc1ccc(C23CCC(CN(c4cc(-n5cc(C(C)C)cn5)ccn4)C(=O)[C@H]4CC[C@H](CC(=O)O)CC4)(CC2)CC3)cc1C` [Compound 4.22, trans-2-(4-((4-(4-Isopropyl-1H-pyrazol-1-yl)pyridin-2-yl)((4-(4-methoxy-3-methylphenyl)bicyclo[2.2.2]octan-1-yl)methyl)carbamoyl)cyclohexyl)acetic acid], the negative-log EC50 (pEC50) is 6.00 to 7.30. As to `COc1ccc(C23CCC(CN(c4cccc(-n5cnc(C6CC6)n5)c4)C(=O)[C@H]4CC[C@H](CC(=O)O)CC4)(CC2)CC3)cc1C` [Compound 4.28, trans-2-(4-((3-(3-Cyclopropyl-1H-1,2,4-triazol-1-yl)phenyl)((4-(4-methoxy-3-methylphenyl)bicyclo[2.2.2]octan-1-yl)methyl)carbamoyl)cyclohexyl)acetic acid], the negative logarithm of the EC50 (pEC50) is not below 7.30. For `COc1ccc(C23CCC(CN(c4cc(-c5cnn(C(C)C)c5)ccn4)C(=O)[C@H]4CC[C@H](CC(=O)O)CC4)(CC2)CC3)cc1C` [Compound 1.01, trans-2-(4-((4-(1-Isopropyl-1H-pyrazol-4-yl)pyridin-2-yl)((4-(4-methoxy-3-methylphenyl)bicyclo[2.2.2]octan-1-yl)methyl)carbamoyl)cyclohexyl)acetic acid], the pEC50 was not below 7.30. Take `COc1ccc(C23CCC(CN(c4cc(-n5cnc(C(C)C)c5)ccn4)C(=O)[C@H]4CC[C@H](CC(=O)O)CC4)(CC2)CC3)cc1C` [Compound 4.25, trans-2-(4-((4-(4-Isopropyl-1H-imidazol-1-yl)pyridin-2-yl)((4-(4-methoxy-3-methylphenyl)bicyclo[2.2.2]octan-1-yl)methyl)carbamoyl)cyclohexyl)acetic acid]: the pEC50 was 6.00 to 7.30. For the compound `COc1ccc(C23CCC(CN(c4cc(-c5coc(C(C)(C)C)n5)ccn4)C(=O)[C@H]4CC[C@H](CC(=O)O)CC4)(CC2)CC3)cc1C` [Compound 4.18, trans-2-(4-((4-(2-(tert-Butyl)oxazol-4-yl)pyridin-2-yl)((4-(4-methoxy-3-methylphenyl)bicyclo[2.2.2]octan-1-yl)methyl)carbamoyl)cyclohexyl)acetic acid], the pEC50 was not below 7.30. For `COc1ccc(C23CCC(CN(c4cc(-c5cnn(C(C)C)c5)ccn4)C(=O)[C@H]4CC[C@H](C(=O)O)CC4)(CC2)CC3)cc1C` [Compound 4.02, trans-4-((4-(1-Isopropyl-1H-pyrazol-4-yl)pyridin-2-yl)((4-(4-methoxy-3-methylphenyl)bicyclo[2.2.2]octan-1-yl)methyl)carbamoyl)cyclohexanecarboxylic acid], the negative-log EC50 (pEC50) was not below 7.30. For `COc1ccc(C23CCC(CN(c4cc(-c5cnc(C(C)C)s5)ccn4)C(=O)[C@H]4CC[C@H](CC(=O)O)CC4)(CC2)CC3)cc1C` [Compound 4.16, trans-2-(4-((4-(2-Isopropylthiazol-5-yl)pyridin-2-yl)((4-(4-methoxy-3-methylphenyl)bicyclo[2.2.2]octan-1-yl)methyl)carbamoyl)cyclohexyl)acetic acid], the negative-log EC50 (pEC50) is not below 7.30. `COc1ccc([C@H]2CC[C@H](CN(c3cccc(-c4cnn(C(C)(C)C)c4)c3)C(=O)[C@H]3CC[C@H](C(=O)O)CC3)CC2)cc1C` [Compound 2.02, trans-4-((3-(1-(tert-Butyl)-1H-pyrazol-4-yl)phenyl)((trans-4-(4-methoxy-3-methylphenyl)cyclohexyl)methyl)carbamoyl) cyclohexanecarboxylic acid]: the negative logarithm of the EC50 (pEC50) was 6.00 to 7.30. Under `CC(C)n1cc(-c2cccc(N(CC34CCC(c5ccc(N(C)C)nc5)(CC3)CC4)C(=O)[C@H]3CC[C@H](CC(=O)O)CC3)c2)cn1` [Compound 4.14, trans-2-(4-(((4-(6-(Dimethylamino)pyridin-3-yl)bicyclo[2.2.2]octan-1-yl)methyl)(3-(1-isopropyl-1H-pyrazol-4-yl)phenyl)carbamoyl)cyclohexyl)acetic acid] stands not below 7.30; under `COc1ccc(C23CCC(CN(c4cccc(-c5cnn(C(C)C)c5)c4)C(=O)[C@H]4CC[C@H](CC(=O)O)CC4)(CC2)CC3)cc1C` [Compound 3.02, trans-2-(4-((3-(1-Isopropyl-1H-pyrazol-4-yl)phenyl)((4-(4-methoxy-3-methylphenyl)bicyclo[2.2.2]octan-1-yl)methyl)carbamoyl)cyclohexyl)acetic acid], not below 7.30. As for `COc1ccc(C23CCC(CN(c4cc(-c5cnn(C(C)C)c5)ccn4)C(=O)[C@H]4CC[C@H](CCC(=O)O)CC4)(CC2)CC3)cc1C` [Compound 1, trans-3-(4-((4-(1-Isopropyl-1H-pyrazol-4-yl)pyridin-2-yl)((4-(4-methoxy-3-methylphenyl)bicyclo[2.2.2]octan-1-yl)methyl)carbamoyl)cyclohexyl)propanoic acid], the pEC50 was not below 7.30. Turning to `COc1ncc(C23CCC(CN(c4cccc(-c5cnn(C(C)(C)C)c5)c4)C(=O)[C@H]4CC[C@H](CC(=O)O)CC4)(CC2)CC3)cc1C` [Compound 2.07, trans-2-(4-((3-(1-(tert-Butyl)-1H-pyrazol-4-yl)phenyl)((4-(6-methoxy-5-methylpyridin-3-yl)bicyclo[2.2.2]octan-1-yl)methyl)carbamoyl)cyclohexyl)acetic acid], the pEC50 is not below 7.30. As for `COc1ccc(C23CCC(CN(c4cc(-c5cnc(C(C)(C)C)s5)ccn4)C(=O)[C@H]4CC[C@H](CC(=O)O)CC4)(CC2)CC3)cc1C` [Compound 4.17, trans-2-(4-((4-(2-(tert-Butyl)thiazol-5-yl)pyridin-2-yl)((4-(4-methoxy-3-methylphenyl)bicyclo[2.2.2]octan-1-yl)methyl)carbamoyl)cyclohexyl)acetic acid], the pEC50 was not below 7.30. The value for `COc1c(C)cc(C23CCC(CN(c4cc(-c5cnn(C(C)C)c5)ncn4)C(=O)[C@H]4CC[C@H](CC(=O)O)CC4)(CC2)CC3)cc1C` [Compound 4.08, trans-2-(4-((6-(1-Isopropyl-1H-pyrazol-4-yl)pyrimidin-4-yl)((4-(4-methoxy-3,5-dimethylphenyl)bicyclo[2.2.2]octan-1-yl)methyl)carbamoyl)cyclohexyl)acetic acid] was 6.00 to 7.30. Under `COc1ccc(C23CCC(CN(c4cc(-c5cnc(C6CC6)s5)ccn4)C(=O)[C@H]4CC[C@H](CC(=O)O)CC4)(CC2)CC3)cc1C` [Compound 4.15, trans-2-(4-((4-(2-Cyclopropylthiazol-5-yl)pyridin-2-yl)((4-(4-methoxy-3-methylphenyl)bicyclo[2.2.2]octan-1-yl)methyl)carbamoyl)cyclohexyl)acetic acid] stands not below 7.30; under `COc1ccc(C23CCC(CN(c4cc(-c5cnn(C(C)C)c5)ccn4)C(=O)[C@H]4CC[C@@H](CC(=O)O)CC4)(CC2)CC3)cc1C` [Compound 5.02, cis-2-(4-((4-(1-Isopropyl-1H-pyrazol-4-yl)pyridin-2-yl)((4-(4-methoxy-3-methylphenyl)bicyclo[2.2.2]octan-1-yl)methyl)carbamoyl)cyclohexyl)acetic acid], 6.00 to 7.30. As for `COc1ccc(C23CCC(CN(c4cc(-c5nnc(C(C)C)o5)ccn4)C(=O)[C@H]4CC[C@H](CC(=O)O)CC4)(CC2)CC3)cc1C` [Compound 4.19, trans-2-(4-((4-(5-lsopropyl-1,3,4-oxadiazol-2-yl)pyridin-2-yl)((4-(4-methoxy-3-methylphenyl)bicyclo[2.2.2]octan-1-yl)methyl)carbamoyl)cyclohexyl)acetic acid], the pEC50 is 6.00 to 7.30.

(Values after US20220054469A1, “FARNESOID X RECEPTOR AGONISTS AND USES THEREOF” (Metacrine, Inc., priority 2018, published 2022).)
